# Results taken from patent US12234256B2, “Molecular degraders of extracellular proteins” (priority 2021, dated 2025).
# How the values were obtained:
# α-DNP antibody [1] = test: In vivo serum levels of α-DNP antibody, ELISA; settings: FIG. 8D; single variable dose; mice
# Protocol: In vivo experiments were performed under Yale University IACUC supervision following protocol entitled “pre-clinical evaluation of small molecule immunomodulators” (Protocol number 2017-11445). Experiments were performed in male nude mice purchased from Jackson Laboratory (NU/J, Stock No. 002019). Compounds were administered i.p. in a volume of 100 μL PBS. Approximately 25 μL of blood was collected at each time point by saphenous bleed. Antibody was administered as 40 μg in 100 μL i.p. Compounds were administered daily at the specified dose throughout the course of experiments. For data analysis, antibody levels were normalized to the recorded concentration of antibody observed in each mouse 24 hours after the i.p. administration.
# ELISA analysis of serum samples was performed using MaxiSorp 96 well plates (Thermo, 44-2404-21). Plates were coated with 50 μL of BSA-DNP (Invitrogen, A23018) at 100 ug/mL in PBS and incubated at 4° C. overnight. Coating solution was then removed, and the plates were blocked with 2% BSA in PBS for 2 hours at room temperature, followed by washing twice with PBST (0.2% Tween). Serum samples were diluted in 2% BSA in PBS. […] The plates were then treated with TMB (Thermo 34028) followed by 2 M H2SO4 and analyzed for OD at 450 nm on a plate reader (BioTek Synergy 2). Sample concentrations were determined against a standard curve.
# α-DNP antibody [2] = test: Ternary complex formation between hepatocytes and α-DNP antibody; assay type: cell-based; settings: FIG. 6B; competitive binders of ASGPR or α-DNP antibody
compound,measurement,setting,value
CC(=O)N[C@H]1[C@H](OCCOCCOCCNC(=O)CCOCC(COCCC(=O)NCCOCCOCCO[C@@H]2O[C@H](CO)[C@H](O)[C@H](O)[C@H]2NC(C)=O)(COCCC(=O)NCCOCCOCCO[C@@H]2O[C@H](CO)[C@H](O)[C@H](O)[C@H]2NC(C)=O)NC(=O)CNC(=O)COCCOCCOCCNc2ccc([N+](=O)[O-])cc2[N+](=O)[O-])O[C@H](CO)[C@H](O)[C@@H]1O [D-MoDE-A],serum levels of α-DNP antibody,α-DNP antibody [1],decrease in serum levels of α-DNP antibody
same,D-MoDE-A-mediated ternary complex formation in presence of competitive binders,α-DNP antibody [2],inhibited by competitive binders of either ASGPR or α-DNP antibody
